From PMC8551653, “Bisphenol A derivatives act as novel coactivator-binding inhibitors for estrogen receptor β” (The Journal of Biological Chemistry, 2021)
Entries after “also recorded” stand apart in the source; their conditions may differ.

B1: SRC1 peptide (amino acids 685–697) derived from human nuclear receptor coactivator 1 (peptide)
peptide: ERHKILHRLLQEG
notes: source: synthetic peptide (ABI 433A, solid phase, Fmoc chemistry)

How the values were obtained:
ERβ [1] = target: T1, ERβ (Homo sapiens, UniProt Q92731); assay: Luciferase reporter gene assay in HeLa cells, agonistic activity; format: cell-based; parameters: expressed in transfected cells; host or cells: HeLa; conditions: HeLa cells, WT ERβ; listed as BPA
Protocol: (§1) HeLa cells were maintained in Eagle's minimum essential medium (Nissui Pharmaceutical Co, Ltd) supplemented with DCC-treated fetal bovine serum (10%, v/v) at 37 °C under 5% CO2. […] After a 24-h incubation, luciferase activity was measured using the ONE-Glo Luciferase Assay System (Promega Co) on an EnSpire multimode plate reader (PerkinElmer, Inc).
Target sequence in this assay (Q92731 whole entry): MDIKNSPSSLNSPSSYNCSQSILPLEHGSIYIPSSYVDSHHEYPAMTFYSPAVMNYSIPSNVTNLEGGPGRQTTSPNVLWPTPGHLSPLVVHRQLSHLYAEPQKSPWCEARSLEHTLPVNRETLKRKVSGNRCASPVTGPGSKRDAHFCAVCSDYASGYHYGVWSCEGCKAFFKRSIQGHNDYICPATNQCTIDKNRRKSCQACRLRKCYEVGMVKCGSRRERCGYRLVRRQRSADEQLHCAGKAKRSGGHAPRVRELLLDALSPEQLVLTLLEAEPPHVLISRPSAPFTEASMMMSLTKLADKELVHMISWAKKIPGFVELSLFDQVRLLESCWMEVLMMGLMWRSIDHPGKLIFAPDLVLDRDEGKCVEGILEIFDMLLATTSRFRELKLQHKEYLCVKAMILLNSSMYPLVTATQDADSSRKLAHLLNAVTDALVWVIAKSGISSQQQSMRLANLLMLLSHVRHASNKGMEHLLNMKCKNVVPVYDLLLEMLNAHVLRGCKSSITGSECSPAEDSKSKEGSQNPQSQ

ERβ(W335A) [2] = target: T2, ERβ(W335A) (Homo sapiens, UniProt Q92731, W335A); assay: Competitive binding assay for ERβ(W335A); parameters: made in house; host or cells: Escherichia coli BL21α (described for the wild-type LBD); conditions: Fig. 4B
Protocol: (§2) After successive incubation with 100 μl of 0.4% dextran-coated charcoal (DCC) (Sigma-Aldrich) in PBS (pH 7.4) on ice for 10 min, free radioligands bound to DCC were removed using a vacuum filtration system with a 96-well filtration plate (MultiScreenHTS HV, […], Merck KGaA) for the bound/free separation. The radioactivity of each eluent was measured using a liquid scintillation counter (LS6500; Beckman Coulter) and Clear-sol I (Nacalai Tesque Inc). […] Each compound was dissolved in dimethyl sulfoxide to prepare a 1.0 mM stock solution and further diluted to prepare serial dilutions (10^−12 M to 10^−5 M) in the binding buffer. […] Bound/free separation was performed as described above, and the radioactivity was determined using a MicroBeta microplate counter (PerkinElmer Inc). The IC50 value of each test compound was calculated from the dose–response curves generated via nonlinear regression analysis using Prism software (GraphPad Software Inc).
Target sequence in this assay (Q92731 263-530 W335A): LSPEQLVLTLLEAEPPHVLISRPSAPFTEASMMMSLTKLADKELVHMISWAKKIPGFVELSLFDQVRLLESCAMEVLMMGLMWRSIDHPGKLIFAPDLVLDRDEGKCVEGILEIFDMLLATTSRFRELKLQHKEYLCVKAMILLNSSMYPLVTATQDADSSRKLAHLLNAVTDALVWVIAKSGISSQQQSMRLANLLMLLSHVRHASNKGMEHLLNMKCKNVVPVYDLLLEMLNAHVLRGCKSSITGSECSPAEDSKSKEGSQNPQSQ

ERβ [3] = target: T1, ERβ; assay: Competitive binding assay with [3H]4OHT for WT ERβ; parameters: made in house; host or cells: Escherichia coli BL21α; conditions: [3H]4OHT radioligand
Protocol: as §2
Target sequence in this assay (Q92731 263-530): as the sequence (Q92731 263-530 W335A) above, with A73W counted along it

ERβ [4] = target: T1, ERβ; assay: Luciferase reporter gene assay in HeLa cells, antagonistic activity against 10 nM E2; format: cell-based; parameters: expressed in transfected cells; host or cells: HeLa; conditions: against 10 nM E2-induced ERβ activation; 100 nM, 1 μM, 10 μM
Protocol: as §1
Target sequence in this assay (Q92731 whole entry): as the sequence (Q92731 whole entry) above

ERβ(W335A) [5] = target: T2, ERβ(W335A); assay: Luciferase reporter gene assay in HeLa cells, ERβ(W335A); format: cell-based; parameters: expressed in transfected cells; host or cells: HeLa
Protocol: as §1, with “After incubation for 24 h, cells were harvested and seeded onto 96-well plates at 5 × 10^4 cells/well, and then treated with a series of the test compounds (10^−12 M to 10^−5 M, final concentration) diluted with 1% bovine serum albumin/PBS (v/v). After” for “After”
Target sequence in this assay (Q92731 whole entry W335A, the tested form may be a part): as the sequence (Q92731 whole entry) above, with W335A counted along it

ERβ [6] = target: T1, ERβ; assay: Radioligand competitive binding assay with [3H]E2 for ERβ (GST-ERβ-LBD); parameters: made in house; host or cells: Escherichia coli BL21α; conditions: relative to E2
Protocol: Human ERβ cDNA was obtained from OriGene Technologies. The cDNA of ERβ-LBD was amplified using PCR and subcloned into a pGEX-6p-1 expression vector. The expression of GST-fused ERβ-LBD was induced by 1 mM IPTG in Escherichia coli BL21α at 16 °C for overnight. The resulting crude protein was affinity-purified using Glutathione-Sepharose 4B (Cytiva), followed by gel filtration using a Sephadex G-10 column (Cytiva).
Target sequence in this assay (Q92731 263-530): as the sequence (Q92731 263-530 W335A) above, with A73W counted along it

[7] = target: T3, GST-fused ligand-binding domain of human estrogen receptor β (amino acids 263–530) (human, UniProt Q92731 263-530); assay: SPR; Biacore T100; GST-ERβ-LBD incubated with 10 μM E2 for 1 h, captured on anti-GST antibody on a CM5 chip at 25 °C; SRC1 peptide injected with E2; HBS-EP+ buffer (0.01 M Hepes pH 7.4, 0.15 M NaCl, 3 mM EDTA, 0.05% Surfactant P20); conditions: both partners purified
T3 construct: cDNA from OriGene Technologies; Subcloned into pGEX-6p-1; Captured on the chip through an anti-GST antibody; Incubated beforehand with 10 μM E2 or 10 μM BPC (small molecules) in two of the three SPR conditions; also called GST-ERβ-LBD; ERβ-LBD; source: E. coli BL21α, purified (Glutathione-Sepharose 4B, gel filtration on Sephadex G-10)

[8] = target: T3, GST-fused ligand-binding domain of …; assay: SPR; Biacore T100; GST-ERβ-LBD incubated with 10 μM BPC for 1 h, captured on anti-GST antibody on a CM5 chip at 25 °C; SRC1 peptide injected with BPC; HBS-EP+ buffer; conditions: both partners purified
[9] = target: T3, GST-fused ligand-binding domain of …; assay: SPR; Biacore T100; GST-ERβ-LBD without E2, captured on anti-GST antibody on a CM5 chip; SRC1 peptide injected; HBS-EP+ buffer; conditions: both partners purified

T3 sequence (Q92731 263-530): as the sequence (Q92731 263-530 W335A) above, with A73W counted along it

| Molecule | ERβ agonist activity (in words) (ERβ [1]) | shape of competitive binding curve, ERβ(W335A) (ERβ(W335A) [2]) | shape of competitive binding curve, WT ERβ (ERβ [3]) | ERβ antagonist activity (in words) (ERβ [4]) | transcriptional activity on ERβ(W335A) (in words) (ERβ(W335A) [5]) | affinity for ERβ, times weaker than that of E2 (ERβ [6]) | Kd [7] | Kd [8] | Kd [9] |
| --- | --- | --- | --- | --- | --- | --- | --- | --- | --- |
| CC(C)(c1ccc(O)cc1)c1ccc(O)cc1 [Compound 19, 4,4'-(propane-2,2-diyl)diphenol] | full agonist activity; also recorded: strongest ERβ agonistic activity; also recorded: strong transcriptional activity | typical sigmoidal competitive dose–response curve | sigmoidal curve | did not elicit antagonistic activity | lost | 400 times | – | – | – |
| B1 | – | – | – | – | – | – | 3.3 µM | 16.4 µM | 9.1 µM |
